Assay results as given in patent US6333340A, “Small molecule sulfonamides for vision and memory disorders” (Gpi Nil Holdings, Inc., priority 1998, dated 2001).
Where “and” joins values, the source holds several entries; their conditions need not be identical. Equal values may be shown once.

Columns and labels:
[1] = tested on: retinal ganglion cells; assay: Optic nerve transection, retinal ganglion cell survival (Fluoro-gold counts); assay type: in vivo, Sprague Dawley rats; details: for RGC Counts: mean density + SEM in 400 μm sample gridfields
Source text: (§1) All eyes and optic nerves stumps were removed.
^1 Mean density + SEM of Fluoro-gold labeled retinal ganglion cells
(RGC) in 400 μm […] sample gridfields.

[2] = tested on: optic nerve axons; assay: Optic nerve transection, optic nerve axon density (RT97 neurofilament immunohistochemistry); assay type: in vivo, Sprague Dawley rats; details: for % surviving RGCs with ON axons / ON head area (% sham) / increased ON axon density / ON axon Count / ON Axon density: 90 days after ONT; for increased ON axon density: adjusted for optic nerve diameter; for ON axon Count: axonal density multiplied by ON area; for ON Axon density: mean + SEM in 200 μm × 200 μm region
Source text: as §1
^2 mean density + SEM of RT97 neurofilament antibody labeled optic
nerve (ON) axons in 200 μm × 200 μm region of interest
^3 adjusted for optic nerve diameter
^4 calculated by multiplying axonal density by ON area

[3] = tested on: optic nerve myelin; assay: Optic nerve transection, myelin basic protein immunohistochemistry of optic nerve stumps; assay type: in vivo, Sprague Dawley rats; details: for Proximal optic nerve myelin basic protein Density, % recovery: SEM
Source text: as §1
^5 determined from 20X analysis of % areal coverage of optic nerve
^6 shrinkage determined by comparing cross sectional area to sham
control, myelin, leves determined by multiplying cross sectional area by […]

[4] = tested on: retinal ganglion cells; assay: Retinal ischemia, retinal ganglion cell degeneration; assay type: in vivo, adult rats; details: 10 mg/kg, s.c. 1 hour prior to ischemia and 10 mg/kg/day next four days; 28 days
Source text: Retinal ganglion cells were retrogradely labeled in adult rats by bilateral injection of fluorogold in their lateral geniculate nuclei. Labeled ganglion cells in the normal rat retina appear as white profiles against the dark background (FIG. 1A). Complete retinal ischemia was produced by infusing normal saline solution into the retinal vitreous cavity of each eye until the intraocular pressure exceeded arterial blood pressure. 28 days after the ischemic episode extensive degeneration of retinal ganglion cell was evidenced by massive reduction in the density of fluorogold labeled cells (FIG. 1B).

[5] = tested on: retina; assay: Streptozotocin induced diabetes, retinal neovascularization and neuron loss (cresyl violet); assay type: in vivo
[6] = tested on: retinal ganglion cells; assay: Optic nerve transection, ganglion cell survival and axonal dying back (Example 16); assay type: in vivo, Sprague Dawley rats; details: 10 mg/kg/day s.c. for 28 days; 90 days after transection
Source text: Transection of the mammalian optic nerve results in a brief period of abortive regeneration, but the majority of axotomized neurons die and the axons from many persisting ganglion cells die back beyond the optic nerve head.

[7] = tested on: aged mice; assay: Morris watermaze, spatial learning and memory in aged mice; assay type: in vivo, male C57BL/6N-Nia mice; details: 10mg/kg daily
Source text: The Morris watermaze is widely used for assessing spatial memory formation and retention in experimental animals. The test depends on the animal's ability to utilize spatial visual information in order to locate a submerged escape platform in a water tank. It is important that the tank itself be as devoid of specific visual features as possible--thus, it is always circular in shape, the sides are kept smooth and in uniform dull colors, and the water is rendered opaque with nontoxic watercolor pigment or powdered milk. This is to ensure that the animal navigates only by the use of more distant visual cues, or by the use of intra-maze cues specifically provided by the experimenter. The tank is filled to a level which forces the animal to swim actively. Normal mice and rats react […] to the swimming part of the test and will climb onto, and remain on, an escape platform from which they are removed to a heated resting cage. If the platform is visible (i.e. above the surface), animals placed in the tank will quickly learn to home in on the platform and climb out onto it. Testing with a visible platform will also ensure that the experimental animals are not blind and show sufficient motivation and stamina to perform the task, which can be important in experiments involving aged rodents. If the platform is invisible (i.e. submerged just below the surface), normal animals learn to use distant visual cues in the test room for orientation in the test tank, and, when placed in the tank, will quickly home in on the approximate location of the platform and circle in that area until the platform is found. The animals' path, speed, and swim time are tracked with a ceiling camera for later computerized analysis. Over the course of several successive trials, spatial learning can therefore be defined as a drop of distance swum, or time elapsed, from placement in the tank until escape onto the invisible platform. The test can be adapted to assess several aspects of spatial memory: a) acquisition of a cued task, where the animal's ability to link one visual cue directly with the escape platform depends on cortical function (i.e. a ball is suspended over the escape platform and the animal learns to follow this cue to find the platform); b) acquisition of a spatial task, where the animal's ability to learn the location of a submerged escape platform based on a combination of distant visual cues is dependent upon hippocampal function (i.e. the animal learns to triangulate its position in the tank by visually aligning the paper-tower dispenser with the door and ceiling lamp); c) retention of a successfully acquired spatial task, which is predominantly dependant on cortical function (i.e. the animal must remember the spatial location of the platform over several weeks); d) a hippocampus-dependant reversal task where the animals must reacquire a new spatial platform location (i.e. the platform is moved to a new location between swim trials and the animal must abandon its previous search strategy and acquire a new one). These different modifications of the Morris watermaze procedure can be applied in sequence to the same set of experimental animals and allow for a thorough characterization of their spatial memory performance and its decline with normal ageing. […]

[8] = tested on: neurite outgrowth; assay: Neurite outgrowth in culture; assay type: cell-based
[9] = tested on: CNS; assay: Sprouting within the CNS following partial deafferentation; assay type: in vivo
[10] = 14 days treatment, 90 days after ONT
[11] = 28 days treatment, 90 days after ONT
[12] = distal stump, first 28 days after transection
[13] = proximal stump, first 28 days after transection
[14] = 28 day treatment beginning 8 weeks after onset of diabetes
[15] = retention after 3 weeks of dosing

For `CCC(C)(C)C(=O)C(=O)N1CCC[C@H]1C(=O)OCCCc1cccnc1` [GPI 1046], the “% RGCs Rescued” value [1, 10] was 5.3%, the “Spared RGC population” value [1, 10] was 20,275 and the “RGC Counts” value [1, 10] was 49 ± 5.3. For the same molecule, the “density of retinal ganglion cells that survived” value ([1]; 14 days treatment, 90 days after transection, in words) was “small but not significant increase”, the “% RGCs Rescued (protection of the vulnerable ganglion cell population)” value [1, 11] was 12.6% and the “Spared RGC population” value [1, 11] was 28,096. For the same molecule, the “RGC Counts” value [1, 11] was 67.9 ± 5.8, the “effect on retinal ganglion cells following Optic Nerve Transection” value ([1]; FIG. 10) was “neuroprotective effect” and the “protection of the vulnerable ganglion cell population, in words” value ([1]; first 28 days after transection) was “moderate but significant protection”. For the same molecule, the “% surviving RGCs with ON axons” value ([2]; 14 days treatment) was 33.6%, the “ON head area (% sham)” value ([2]; 14 days treatment) was 76% and the “increased ON axon density” value ([2]; 14 days treatment) was 1.5 X. The “ON axon Count” value ([2]; 14 days treatment) was 6820, the “ON Axon density” value ([2]; 14 days treatment) was 569 ± 23 and the “density of large, medium and small caliber optic nerve axons” value ([2]; 28 day treatment) was “significant increase in the density of large, and particularly medium and small caliber optic nerve axons”. The “% surviving RGCs with ON axons” value ([2]; 28 days treatment) was 81.4%, the “ON head area (% sham)” value ([2]; 28 days treatment) was 95% and the “increased ON axon density” value ([2]; 28 days treatment) was 5.0 X. For the same molecule, the “ON axon Count” value ([2]; 28 days treatment) was 22,861, the “ON Axon density” value ([2]; 28 days treatment) was 1526 ± 120 and the “effect on optic nerve axons versus ganglion cell bodies” value ([2]; FIG. 5) was “greater effect on optic nerve axons than ganglion cell bodies”. For the same molecule, the “protection of optic nerve axons” value ([2]; first 14 days after transection) was 5.3%, the “preservation of optic nerve axons in the proximal stump” value ([2]; following optic nerve transection, FIG. 12) was “preserves optic nerve axons in the proximal stump” and the “Distal optic nerve myelin basic protein Density, loss” value [3, 10] was 47%. For the same molecule, the “Proximal optic nerve myelin basic protein Density, % recovery” value [3, 10] was 1.6% and 1.6 ± 3.0%, the “Distal optic nerve, shrinkage” value ([3]; 14 days treatment, 90 days after ONT, cross sectional area vs sham control) was 33% and the “Distal optic nerve myelin preservation (myelin levels of normal)” value [3, 11] was ~ 99% and 99%. For the same molecule, the “Distal optic nerve, less shrinkage” value [3, 11] was 56%, the “Proximal optic nerve myelin basic protein Density, % recovery” value [3, 11] was 70% and 70 ± 6.3% and the “density of degenerating myelin figures” value ([3]; distal stump, first 14 days after transection) was “remained high”. For the same molecule, the density of myelin ([3]; distal stump, first 14 days after transection, in words) was “slightly increase the density of myelin”, the “density of degenerating myelin figures” value [3, 12] was “decreased the density of degenerating myelin figures” and the “fascicular pattern of myelin labeling” value [3, 12] was “dramatic protection of the fascicular pattern of myelin labeling”. For the same molecule, the “shrinkage of the distal stump” value ([3]; first 14 days after transection, in words) was “did not protect against shrinkage of the distal stump”, the “cross sectional shrinkage of the distal stump” value ([3]; first 28 days after transection, in words) was “prevented cross sectional shrinkage of the distal stump” and the “pattern of myelin degeneration” value ([3]; proximal stump, first 14 days after transection) was “did not alter the pattern of myelin degeneration”. For the same molecule, the “density of degenerating myelin figures” value [3, 13] was “decreased the density of degenerating myelin figures”, the “fascicular staining pattern for myelin basic protein” value [3, 13] was “dramatic preservation of the fascicular staining pattern for myelin basic protein” and the “protection of the vulnerable ganglion cell population” value [4] was “noticeable protection of a large proportion of the vulnerable ganglion cell population”. The “neovascularization in the PR, ONL, OPL and INL” value [5, 14] was “reduced neovascularization”, the “protection against neuronal loss in the ONL” value [5, 14] was “did not appear to protect against neuronal loss in the ONL” and the “loss of neurons in INL and GCL” value ([5]; 28 day treatment, compared to streptozotocin/vehicle) was “appeared to decrease the loss of neurons in both the INL and GCL”. For the same molecule, the perikaryal neuroprotection [6] was “moderate degree of perikaryal neuroprotection”, the “preservation of axons of protected neurons in the proximal stump” value [6] was “preserved the axons of virtually all protected neurons” and the “sparing of the ganglion cell population” value [6] was 25%. For the same molecule, the “spatial memory performance of mice with age-related spatial memory impairments” value ([7]; systemic) was “significantly enhanced spatial memory performance”, the “P, retention phase, young vs aged impaired GPI-1046” value ([7]; F1.69 =3.09) was 0.08 and the “P, retention testing, aged impaired-vehicle vs aged impaired GPI-1046” value ([7]; F1.69 =8.11) was 0.006. For the same molecule, the “retention phase, difference between young and aged impaired GPI-1046 groups” value [7, 15] was “no longer any statistically significant difference”, the “retention testing, aged impaired-vehicle compared with aged impaired GPI-1046” value [7, 15] was “"aged impaired-vehicle" treated animals performed significantly poorer than "aged impaired - GPI-1046"” and the “neurite outgrowth in culture” value [8] was “enhances neurite outgrowth in culture”. The “sprouting within the CNS” value [9] was “stimulate sprouting within the CNS following partial deafferentation”.
